System: 922993-354-T-J3-PDC complex spheroid viability
Experiment: Anticancer human tumor 922993-354-T-J3-PDC patient-derived endometrial carcinoma cell line growth inhibition [POLQ]
Details: for IC50: curve of first compound; for viability, T/C: stronger effect = lower value
Outline: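 PDC + HUVEC + MSC complex spheroids; POLQ inhibitors ± partner drugs; top conc. at/near clinical Cmax, else 10 microM (SN-38 1 microM), half-log dilutions; 37 degrees C, 5% CO2.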

[1] = second compound 0.0316 µM, first compound 0.00316 µM
[2] = second compound 0.0316 µM, first compound 0.01 µM
[3] = second compound 0.0316 µM, first compound 0.0316 µM
[4] = second compound 0.0316 µM, first compound 0.1 µM
[5] = second compound 0.0316 µM, first compound 0.316 µM
[6] = second compound 0.0316 µM, first compound 1 µM
[7] = second compound 0.1 µM, first compound 0.00316 µM
[8] = second compound 0.1 µM, first compound 0.01 µM
[9] = second compound 0.1 µM, first compound 0.0316 µM
[10] = second compound 0.1 µM, first compound 0.1 µM
[11] = second compound 0.1 µM, first compound 0.316 µM
[12] = second compound 0.1 µM, first compound 1 µM
[13] = second compound 0.316 µM, first compound 0.00316 µM
[14] = second compound 0.316 µM, first compound 0.01 µM
[15] = second compound 0.316 µM, first compound 0.0316 µM
[16] = second compound 0.316 µM, first compound 0.1 µM
[17] = second compound 0.316 µM, first compound 0.316 µM
[18] = second compound 0.316 µM, first compound 1 µM
[19] = second compound 1 µM, first compound 0.00316 µM
[20] = second compound 1 µM, first compound 0.01 µM
[21] = second compound 1 µM, first compound 0.0316 µM
[22] = second compound 1 µM, first compound 0.1 µM
[23] = second compound 1 µM, first compound 0.316 µM
[24] = second compound 1 µM, first compound 1 µM
[25] = second compound 3.16 µM, first compound 0.00316 µM
[26] = second compound 3.16 µM, first compound 0.01 µM
[27] = second compound 3.16 µM, first compound 0.0316 µM
[28] = second compound 3.16 µM, first compound 0.1 µM
[29] = second compound 3.16 µM, first compound 0.316 µM
[30] = second compound 3.16 µM, first compound 1 µM
[31] = second compound 10 µM, first compound 0.00316 µM
[32] = second compound 10 µM, first compound 0.01 µM
[33] = second compound 10 µM, first compound 0.0316 µM
[34] = second compound 10 µM, first compound 0.1 µM
[35] = second compound 10 µM, first compound 0.316 µM
[36] = second compound 10 µM, first compound 1 µM
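Further: spheroids exposed to the agents for one week.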
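Wherever viability, T/C is given: 100% = DMSO vehicle control wells.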

Which results are given for C=CCn1c(=O)c2cnc(Nc3ccc(N4CCN(C)CC4)cc3)nc2n1-c1cccc(C(C)(C)O)n1 + COC1C(OC(N)=O)C(O)C(Oc2ccc3c(O)c(NC(=O)c4ccc(O)c(CC=C(C)C)c4)c(=O)oc3c2C)OC1(C)C?
IC50 (second compound 0.0316 µM): > 1000 nM; IC50 (second compound 0.1 µM): > 1000 nM; IC50 (second compound 0.316 µM): > 1000 nM; IC50 (second compound 1 µM): > 1000 nM; IC50 (second compound 3.16 µM): > 1000 nM; IC50 (second compound 10 µM): > 1000 nM; viability, T/C [1]: 91.7%; viability, T/C [2]: 105%; viability, T/C [3]: 97.4%; viability, T/C [4]: 101%; viability, T/C [5]: 118%; viability, T/C [6]: 94.9%; viability, T/C [7]: 94%; viability, T/C [8]: 96.3%; viability, T/C [9]: 101%; viability, T/C [10]: 102%; viability, T/C [11]: 106%; viability, T/C [12]: 103%; viability, T/C [13]: 101%; viability, T/C [14]: 104%; viability, T/C [15]: 85%; viability, T/C [16]: 95.4%; viability, T/C [17]: 102%; viability, T/C [18]: 84.9%; viability, T/C [19]: 108%; viability, T/C [20]: 95.7%; viability, T/C [21]: 88.9%; viability, T/C [22]: 96.2%; viability, T/C [23]: 100%; viability, T/C [24]: 93.4%; viability, T/C [25]: 94.4%; viability, T/C [26]: 97.7%; viability, T/C [27]: 101%; viability, T/C [28]: 91.1%; viability, T/C [29]: 102%; viability, T/C [30]: 91.3%; viability, T/C [31]: 94.6%; viability, T/C [32]: 69.8%; viability, T/C [33]: 78%; viability, T/C [34]: 88.8%; viability, T/C [35]: 106%; viability, T/C [36]: 81.2%

CC[C@@]1(O)C(=O)OCc2c1cc1n(c2=O)Cc2cc3c(CN(C)C)c(O)ccc3nc2-1 + COC1C(OC(N)=O)C(O)C(Oc2ccc3c(O)c(NC(=O)c4ccc(O)c(CC=C(C)C)c4)c(=O)oc3c2C)OC1(C)C was tested. Which IC50 (second compound 0.0316 µM) did it give?
Its IC50 is 74.9 nM.

What about the IC50 (second compound 0.1 µM) of the same compound?
The IC50 was 70.8 nM.

And the IC50 (second compound 0.316 µM)?
Its IC50 is 84.1 nM.

And the IC50 (second compound 1 µM)?
The IC50 was 70.3 nM.

And the IC50 (second compound 3.16 µM)?
The IC50 was 70.7 nM.

And the IC50 (second compound 10 µM)?
The IC50 was 78.3 nM.

And the viability, T/C (second compound 0.0316 µM, first compound 0.000316 µM)?
The viability, T/C was 102%.

What about the viability, T/C (second compound 0.0316 µM, first compound 0.001 µM) of the same compound?
The viability, T/C was 83%.

What about the viability, T/C [1] of the same compound?
The viability, T/C was 98.2%.

And the viability, T/C [2]?
The viability, T/C was 93.5%.

And the viability, T/C [3]?
Its viability, T/C is 76%.

And the viability, T/C [4]?
The viability, T/C was 41.3%.

And the viability, T/C (second compound 0.1 µM, first compound 0.000316 µM)?
Its viability, T/C is 100%.

What about the viability, T/C (second compound 0.1 µM, first compound 0.001 µM) of the same compound?
Its viability, T/C is 101%.

And the viability, T/C [7]?
Its viability, T/C is 102%.

What about the viability, T/C [8] of the same compound?
The viability, T/C was 98.8%.

And the viability, T/C [9]?
Its viability, T/C is 75.3%.

What about the viability, T/C [10] of the same compound?
Its viability, T/C is 39.1%.

And the viability, T/C (second compound 0.316 µM, first compound 0.000316 µM)?
The viability, T/C was 100%.

What about the viability, T/C (second compound 0.316 µM, first compound 0.001 µM) of the same compound?
Its viability, T/C is 96.6%.

What about the viability, T/C [13] of the same compound?
Its viability, T/C is 100%.

And the viability, T/C [14]?
Its viability, T/C is 96.5%.

And the viability, T/C [15]?
Its viability, T/C is 85.9%.

And the viability, T/C [16]?
Its viability, T/C is 43.6%.

And the viability, T/C (second compound 1 µM, first compound 0.000316 µM)?
The viability, T/C was 108%.

What about the viability, T/C (second compound 1 µM, first compound 0.001 µM) of the same compound?
The viability, T/C was 98.7%.

And the viability, T/C [19]?
Its viability, T/C is 96.9%.

And the viability, T/C [20]?
Its viability, T/C is 94.6%.

And the viability, T/C [21]?
The viability, T/C was 73.3%.

And the viability, T/C [22]?
The viability, T/C was 39.2%.

And the viability, T/C (second compound 3.16 µM, first compound 0.000316 µM)?
The viability, T/C was 93.9%.

And the viability, T/C (second compound 3.16 µM, first compound 0.001 µM)?
Its viability, T/C is 99%.

And the viability, T/C [25]?
The viability, T/C was 89.7%.

And the viability, T/C [26]?
Its viability, T/C is 90.9%.

And the viability, T/C [27]?
The viability, T/C was 79%.

And the viability, T/C [28]?
Its viability, T/C is 37.2%.

And the viability, T/C (second compound 10 µM, first compound 0.000316 µM)?
Its viability, T/C is 92.6%.

What about the viability, T/C (second compound 10 µM, first compound 0.001 µM) of the same compound?
Its viability, T/C is 76.9%.

And the viability, T/C [31]?
Its viability, T/C is 88.3%.

And the viability, T/C [32]?
Its viability, T/C is 84.4%.

And the viability, T/C [33]?
Its viability, T/C is 84.6%.

And the viability, T/C [34]?
Its viability, T/C is 40.7%.

Which results are given for CCc1c2c(nc3ccc(O)cc13)-c1cc3c(c(=O)n1C2)COC(=O)[C@]3(O)CC + COC1C(OC(N)=O)C(O)C(Oc2ccc3c(O)c(NC(=O)c4ccc(O)c(CC=C(C)C)c4)c(=O)oc3c2C)OC1(C)C?
IC50 (second compound 0.0316 µM): 6.29 nM; IC50 (second compound 0.1 µM): 8.2 nM; IC50 (second compound 0.316 µM): 8.19 nM; IC50 (second compound 1 µM): 7.48 nM; IC50 (second compound 3.16 µM): 7.04 nM; IC50 (second compound 10 µM): 7.52 nM; viability, T/C [1]: 81.4%; viability, T/C [2]: 28.9%; viability, T/C [3]: 14.3%; viability, T/C [4]: 11.3%; viability, T/C [5]: 13.4%; viability, T/C [6]: 15.7%; viability, T/C [7]: 85.7%; viability, T/C [8]: 42.6%; viability, T/C [9]: 14.8%; viability, T/C [10]: 12.7%; viability, T/C [11]: 12.1%; viability, T/C [12]: 17.8%; viability, T/C [13]: 85.5%; viability, T/C [14]: 42.5%; viability, T/C [15]: 12%; viability, T/C [16]: 11.8%; viability, T/C [17]: 11.8%; viability, T/C [18]: 19.4%; viability, T/C [19]: 85.6%; viability, T/C [20]: 37.9%; viability, T/C [21]: 11.6%; viability, T/C [22]: 9.81%; viability, T/C [23]: 12.3%; viability, T/C [24]: 16.5%; viability, T/C [25]: 76.3%; viability, T/C [26]: 38.5%; viability, T/C [27]: 15.2%; viability, T/C [28]: 11.2%; viability, T/C [29]: 14.2%; viability, T/C [30]: 19.2%; viability, T/C [31]: 83.8%; viability, T/C [32]: 38.8%; viability, T/C [33]: 10%; viability, T/C [34]: 10.3%; viability, T/C [35]: 13.1%; viability, T/C [36]: 17%

From PubChem BioAssay AID1963830 (Molecular Pharmacology Branch, DTP, NCI, 2024)
